From ChEMBL document CHEMBL1201862, “PubChem BioAssay data set” (2004)
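These data come from cells grown in 96-well plates and exposed to compound for 48 hours at five concentrations. Here, GI50 denotes the concentration required for 50% inhibition of growth.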 The source made the active and inactive calls. Cut-off read from the data, not from the text of the source: active = GI50 up to about 1.1 µM and inactive = higher.

Assays:
Test in all cases: NCI tumour cell line growth inhibition, 48 h
[1] = system: A549
[2] = system: HCC 2998
[3] = system: HCT-15
[4] = system: HL-60
[5] = system: HT-29
[6] = system: K562
[7] = system: MDA-N
[8] = system: MOLT-4
[9] = system: Malme-3M
[10] = system: NCI-H460
[11] = system: NCI/ADR-RES
[12] = system: OVCAR-3
[13] = system: OVCAR-4
[14] = system: PC-3
[15] = system: SF-268
[16] = system: SK-MEL-2
[17] = system: SK-MEL-5
[18] = system: SR
[19] = system: UACC-257

SMILES | GI50 [1] | GI50 [2] | GI50 [3] | GI50 [4] | GI50 [5] | GI50 [6] | GI50 [7] | GI50 [8] | GI50 [9] | GI50 [10] | GI50 [11] | GI50 [12] | GI50 [13] | GI50 [14] | GI50 [15] | GI50 [16] | GI50 [17] | GI50 [18] | GI50 [19]
CCCCCc1cc(CCCC)sc1-c1ccco1 | 40 µM (inactive) | > 95.9 µM (inactive) | > 100 µM | 21.7 µM (inactive) | 45 µM (inactive) | > 58.2 µM (inactive) | > 80.5 µM (inactive) | 51.9 µM (inactive) | 40 µM (inactive) | > 100 µM (inactive) | > 100 µM (inactive) | > 74.8 µM (inactive) | > 100 µM (inactive) | > 100 µM (inactive) | > 100 µM (inactive) | > 83.9 µM (inactive) | > 100 µM (inactive) | 44.2 µM (inactive) | > 64.3 µM (inactive)
Cn1c(=O)c2c(nc3n(C)c(=O)c4ccccc4n23)n(C)c1=O | 9.98 µM (inactive) | > 100 µM (inactive) | 35.1 µM | 24 µM (inactive) | 75.3 µM (inactive) | > 67 µM (inactive) | > 100 µM (inactive) | 3.18 µM (inactive) | > 49.3 µM (inactive) | 6.93 µM (inactive) | 59.4 µM (inactive) | > 100 µM (inactive) | > 100 µM (inactive) | > 95.3 µM (inactive) | 68.5 µM (inactive) | > 100 µM (inactive) | 27.8 µM (inactive) | 3.67 µM (inactive) | > 100 µM (inactive)
Clc1ccc(COC(Cn2ccnc2)c2ccc(Cl)cc2Cl)cc1 (stereo not given) [ECONAZOLE NITRATE] | 9.79 µM (inactive) | 15.6 µM (inactive) | 12.8 µM | 4.19 µM (inactive) | 8.49 µM (inactive) | 4.62 µM (inactive) | 11.9 µM (inactive) | 2.75 µM (inactive) | 16.4 µM (inactive) | 10.7 µM (inactive) | 5.42 µM (inactive) | 11.5 µM (inactive) | 8.3 µM (inactive) | 9.16 µM (inactive) | 14.7 µM (inactive) | 15 µM (inactive) |  | 3.49 µM (inactive) | 10.4 µM (inactive)
O=S1(=O)OCCOS(=O)(=O)C1F | > 100 µM (inactive) | > 100 µM (inactive) | > 100 µM | > 100 µM (inactive) | > 100 µM (inactive) | > 100 µM (inactive) | > 100 µM (inactive) | > 100 µM (inactive) | > 100 µM (inactive) |  | > 100 µM (inactive) | > 100 µM (inactive) | > 100 µM (inactive) | > 100 µM (inactive) | > 100 µM (inactive) | > 100 µM (inactive) | > 100 µM (inactive) | > 100 µM (inactive) | > 100 µM (inactive)
Cc1ccn2c(=O)cc(CN3CCOCC3)nc2c1 | > 100 µM (inactive) | > 100 µM (inactive) | > 100 µM | > 100 µM (inactive) | > 100 µM (inactive) | > 100 µM (inactive) | > 100 µM (inactive) | > 100 µM (inactive) | > 100 µM (inactive) | > 100 µM (inactive) | > 100 µM (inactive) | > 100 µM (inactive) | > 100 µM (inactive) | > 100 µM (inactive) | > 100 µM (inactive) | > 100 µM (inactive) |  | > 100 µM (inactive) | > 100 µM (inactive)
O=C(NNC(=S)Nc1ccccc1)c1ccccc1Nc1ccccc1C(=O)NNC(=S)Nc1ccccc1 | 27.2 µM (inactive) | 16.9 µM (inactive) | 29.5 µM | 35.5 µM (inactive) | 28.5 µM (inactive) | 74 µM (inactive) | 29.1 µM (inactive) | 29.6 µM (inactive) | 19.8 µM (inactive) | 20 µM (inactive) | 87.3 µM (inactive) | 19.6 µM (inactive) | 26.7 µM (inactive) | 23 µM (inactive) | 17 µM (inactive) | 19.6 µM (inactive) | 26.3 µM (inactive) | 43.6 µM (inactive) | 19.1 µM (inactive)
O=C(CNc1ccc(Cl)cc1Cl)Nn1c(-c2ccccc2)nc2ccccc2c1=O | 30.5 µM (inactive) | 17.7 µM (inactive) | 19.1 µM | 20 µM (inactive) | 16.1 µM (inactive) | 10.2 µM (inactive) | 15.9 µM (inactive) | 5.14 µM (inactive) | 18.2 µM (inactive) | 15.7 µM (inactive) | 20.3 µM (inactive) | 17 µM (inactive) | 13.9 µM (inactive) | 14.9 µM (inactive) | 3.86 µM (inactive) |  | 5.94 µM (inactive) | 13.9 µM (inactive) | 21.6 µM (inactive)
Cc1nn2c(N)cc(=O)nc2nc1/C=C/c1ccc(N(C)C)cc1 | 16.9 µM (inactive) | 3.18 µM (inactive) |  | < 0.01 µM (active) | 4.76 µM (inactive) | 9.08 µM (inactive) | 5.82 µM (inactive) | > 52 µM (inactive) | 5.2 µM (inactive) | 6.89 µM (inactive) | > 100 µM (inactive) |  | > 26.5 µM (inactive) | > 100 µM (inactive) | > 100 µM (inactive) | > 49.2 µM (inactive) | 20.6 µM (inactive) | > 100 µM (inactive) | 17.3 µM (inactive)
CC/C=C\C=C/C(=O)N/C=C/CCC | > 100 µM (inactive) | 23.3 µM (inactive) | > 100 µM | > 100 µM (inactive) | 78.3 µM (inactive) | > 100 µM (inactive) | > 100 µM (inactive) | 22.8 µM (inactive) | > 100 µM (inactive) | > 100 µM (inactive) | > 100 µM (inactive) | 58.3 µM (inactive) | > 100 µM (inactive) | 85.1 µM (inactive) | > 100 µM (inactive) | > 100 µM (inactive) |  | 33.3 µM (inactive) | > 100 µM (inactive)
Cc1nc2c(sc(=S)n2-c2ccccc2)c2nc3ncccc3n12 | > 100 µM (inactive) | > 100 µM (inactive) | > 100 µM | > 100 µM (inactive) | > 100 µM (inactive) | > 100 µM (inactive) | > 100 µM (inactive) | > 100 µM (inactive) | > 100 µM (inactive) | > 100 µM (inactive) | > 100 µM (inactive) | > 100 µM (inactive) |  | > 100 µM (inactive) | 66.7 µM (inactive) | 65.8 µM (inactive) | > 100 µM (inactive) | > 100 µM (inactive) | > 100 µM (inactive)
COc1ccc(C(=O)/C=C/c2cc(O)c(O)c(F)c2F)c(OC)c1 | 16.1 µM (inactive) | 4.75 µM (inactive) | 4.99 µM | 4.22 µM (inactive) | 4.67 µM (inactive) | 17.9 µM (inactive) | 12.7 µM (inactive) |  | 15.5 µM (inactive) | 4.45 µM (inactive) | 10.1 µM (inactive) | 5.48 µM (inactive) | 19 µM (inactive) | 12.3 µM (inactive) | 18.6 µM (inactive) | 14.4 µM (inactive) | 11.5 µM (inactive) | 4.24 µM (inactive) | 15.9 µM (inactive)
COC(=O)CSSCc1ccc([N+](=O)[O-])cc1 | 25.5 µM (inactive) | 21.4 µM (inactive) | 16.7 µM | 21.1 µM (inactive) | 19.5 µM (inactive) | 29.6 µM (inactive) | 14.7 µM (inactive) | 3.93 µM (inactive) | 29.6 µM (inactive) | 33.7 µM (inactive) | 20.9 µM (inactive) | 18.5 µM (inactive) |  | 28.1 µM (inactive) | 21.8 µM (inactive) | 18.1 µM (inactive) | 17.7 µM (inactive) | 12 µM (inactive) | 26.5 µM (inactive)
COC1CC(OC2C(C)OC(OC3C(C)OC(OC4C(C)OC(O[C@H]5CC[C@@]6(C)C(=CC[C@]7(O)[C@@H]6C[C@@H](O)[C@@]6(C)[C@]7(O)CC[C@@]6(O)C(C)=O)C5)CC4OC)CC3OC)CC2OC)OC(C)C1O (stereo not given in full) | > 12.5 µM (inactive) | > 12.5 µM (inactive) | > 12.5 µM | > 12.5 µM (inactive) | > 12.5 µM (inactive) | > 12.5 µM (inactive) | > 12.5 µM (inactive) | > 12.5 µM (inactive) | > 12.5 µM (inactive) |  | > 12.5 µM (inactive) | > 12.5 µM (inactive) | > 12.5 µM (inactive) | > 12.5 µM (inactive) | > 12.5 µM (inactive) | > 12.5 µM (inactive) | > 12.5 µM (inactive) | > 12.5 µM (inactive) | > 12.5 µM (inactive)
COc1c(-c2ccc(F)cc2)oc2c(CC(=O)O)cccc2c1=O | > 100 µM (inactive) | > 100 µM (inactive) |  | > 100 µM (inactive) | > 100 µM (inactive) | > 100 µM (inactive) | > 100 µM (inactive) | > 100 µM (inactive) | > 100 µM (inactive) |  | > 100 µM (inactive) | > 100 µM (inactive) |  | > 100 µM (inactive) | > 100 µM (inactive) | > 100 µM (inactive) | > 100 µM (inactive) | > 100 µM (inactive) | > 100 µM (inactive)
N#CCCN(C(=O)Nc1ccc(NC(=O)N(CCC#N)c2ccccc2)cc1)c1ccccc1 | > 100 µM (inactive) | > 100 µM (inactive) | > 100 µM | > 100 µM (inactive) | > 100 µM (inactive) | > 100 µM (inactive) | > 100 µM (inactive) | > 100 µM (inactive) | > 100 µM (inactive) | > 100 µM (inactive) | > 100 µM (inactive) | > 100 µM (inactive) | > 100 µM (inactive) | > 100 µM (inactive) | > 100 µM (inactive) | > 100 µM (inactive) | > 100 µM (inactive) | > 100 µM (inactive) | 
